For this test, the system named is MRSA NCTC 11939. Description: Synergy testing: disc susceptibility, zone of inhibition on agar containing Laureth derivative. It is filed as cell-based, Staphylococcus aureus. The protocol:
There now follows data relating to a screen for synergistic interaction between Laureth derivatives [C12E1 to C12E8] and 12 conventional anti-staphylococcal agents.
Ethoxylated Lauryl Alcohol Derivative Preparation As plates containing quarter strength of the MIC of NCTC 11939 are needed, and therefore very small weights of each compound, they were prepared at twenty time strength in 20 mL volumes in plastic universals. Once prepared these solutions were diluted […] by adding 1 mL to 1 mL SDW, resulting a 2 mL volume at ten times strength. This was undertaken in duplicate to create two identical plates.
IST was prepared as previously stated in above. 18 mL agar was added to each universal and then poured into sterile Petri dishes. Control plates were prepared as stated above
A 0.5 McFarland suspension of MRSA NCTC 11939 was prepared using SDW. This was then adjusted to a concentration of 1.5×107 by adding 200 μL to 1.8 mL of SDW. Once diluted, a sterile cotton swab was used to spread the suspension evenly across the entire surface of each agar plate.
Twelve antibiotics discs were added to the plates, 6 per plate in a circle. The plates were then incubated aerobically at 37° C.
The diameter of the zones of clearance were measured and recorded in millimetres. The zones for each compound were compared to the control and to BSAC breakpoints.
A variation of zone size within 2 mm is within acceptable limits of assay reproducibility.

Where [1] appears, read: antibiotic disc in the presence of L1 [C12E1] 0.005 mmol/L.
Where [2] appears, read: antibiotic disc in the presence of L2 [C12E2] 0.0275 mmol/L.
Setting [3] is: antibiotic disc in the presence of L3 [C12E3] 0.01375 mmol/L.
[4] abbreviates: antibiotic disc in the presence of L4 [C12E4] 0.0275 mmol/L.
Setting [5] is: antibiotic disc in the presence of L5 [C12E5] 0.0275 mmol/L.
Setting [6] is: antibiotic disc in the presence of L6 [C12E6] 0.0275 mmol/L.
Setting [7] is: antibiotic disc in the presence of L7 [C12E7] 0.0275 mmol/L.
[8] abbreviates: antibiotic disc in the presence of L8 [C12E8] 0.055 mmol/L.
Where [9] appears, read: antibiotic disc, Control, 0 mmol/L Laureth derivative.

For `O=C(N[C@H](CO)[C@H](O)c1ccc([N+](=O)[O-])cc1)C(Cl)Cl` [Chloramphenicol], the “Zone of Inhibition” value is, setting by setting: under setting [1], 22 mm; under setting [2], 22 mm; under setting [3], 24 mm; under setting [4], 23 mm; under setting [5], 25 mm; under setting [6], 23 mm. Besides, the “Zone of Inhibition” value runs as follows: under setting [7], 22 mm; under setting [8], 23 mm.
Take `CCC[C@@H]1C[C@@H](C(=O)N[C@@H]([C@H]2O[C@H](SC)[C@H](O)[C@@H](O)[C@H]2O)[C@H](C)Cl)N(C)C1` [Clindamycin]: the “Zone of Inhibition” value is recorded as 33 mm under setting [1]; 32 mm under setting [2]; 32 mm under setting [3]; 34 mm under setting [4]; 33 mm under setting [5]; 33 mm under setting [6]. For the same molecule, the “Zone of Inhibition” value under setting [7] was determined as 34 mm and the “Zone of Inhibition” value under setting [8] was 35 mm.
Take `CC[C@H]1OC(=O)[C@H](C)[C@@H](O[C@H]2C[C@@](C)(OC)[C@@H](O)[C@H](C)O2)[C@H](C)[C@@H](O[C@@H]2O[C@H](C)C[C@H](N(C)C)[C@H]2O)[C@](C)(O)C[C@@H](C)C(=O)[C@H](C)[C@@H](O)[C@]1(C)O` [Erythromycin]: the “Zone of Inhibition” value was found to be 7 mm under setting [1]; 7 mm under setting [2]; 7 mm under setting [3]; 8 mm under setting [4]; 7 mm under setting [5]; 7 mm under setting [6]. Also, the “Zone of Inhibition” value stood at 7 mm under setting [7] and 8 mm under setting [8].
In the case of `CC(=O)O[C@H]1C[C@@]2(C)[C@@H](C[C@@H](O)[C@H]3[C@@]4(C)CC[C@@H](O)[C@@H](C)[C@@H]4CC[C@@]32C)/C1=C(\CCC=C(C)C)C(=O)O` [Fusidic Acid], the “Zone of Inhibition” value was determined as 36 mm under setting [1]; 37 mm under setting [2]; 35 mm under setting [3]; 38 mm under setting [4]; 37 mm under setting [5]; 39 mm under setting [6]. For the same molecule, the “Zone of Inhibition” value under setting [7] came to 37 mm.
Consider `COc1c(N2C[C@@H]3CCCN[C@@H]3C2)c(F)cc2c(=O)c(C(=O)O)cn(C3CC3)c12` [Moxyfloxacin], for which the “Zone of Inhibition” value reads like this: under setting [1], 14 mm; under setting [2], 14 mm; under setting [3], 16 mm; under setting [4], 14 mm; under setting [5], 13 mm; under setting [6], 14 mm. Also, the “Zone of Inhibition” value runs as follows: under setting [7], 18 mm; under setting [9], 15 mm.
In the case of `C/C(=C\C(=O)OCCCCCCCCC(=O)O)C[C@@H]1OC[C@H](C[C@@H]2O[C@H]2[C@@H](C)[C@H](C)O)[C@@H](O)[C@H]1O` [Muprocin], the “Zone of Inhibition” value stood at 32 mm under setting [1]; 33 mm under setting [2]; 32 mm under setting [3]; 34 mm under setting [4]; 32 mm under setting [5]; 33 mm under setting [6]. Moreover, the “Zone of Inhibition” value runs as follows: under setting [7], 34 mm; under setting [8], 35 mm; under setting [9], 33 mm.
Consider `CO[C@H]1/C=C/O[C@@]2(C)Oc3c(C)c(O)c4c(O)c(c(/C=N/N5CCN(C)CC5)c(O)c4c3C2=O)NC(=O)/C(C)=C\C=C\[C@H](C)[C@H](O)[C@@H](C)[C@@H](O)[C@@H](C)[C@H](OC(C)=O)[C@@H]1C` [Rifampicin], for which the “Zone of Inhibition” value amounted to 37 mm under setting [1]; 37 mm under setting [2]; 37 mm under setting [3]; 40 mm under setting [4]; 39 mm under setting [5]; 40 mm under setting [6]. Also, the “Zone of Inhibition” value under setting [7] is reported as 39 mm.
Regarding `CN(C)[C@@H]1C(O)=C(C(N)=O)C(=O)[C@@]2(O)C(O)=C3C(=O)c4c(O)cccc4[C@@](C)(O)[C@H]3C[C@@H]12` [Tetracycline], the “Zone of Inhibition” value came out at 34 mm under setting [1]; 35 mm under setting [2]; 35 mm under setting [3]; 36 mm under setting [4]; 32 mm under setting [5]; 35 mm under setting [6]. Moreover, under setting [7], the “Zone of Inhibition” value worked out at 36 mm.
As to `COc1cc(Cc2cnc(N)nc2N)cc(OC)c1OC` [Trimethoprim], the “Zone of Inhibition” value reads like this: under setting [1], 29 mm; under setting [2], 30 mm; under setting [3], 28 mm; under setting [4], 31 mm; under setting [5], 30 mm; under setting [6], 31 mm. Under setting [7], the “Zone of Inhibition” value is 30 mm.
Turning to `CN[C@H](CC(C)C)C(=O)N[C@H]1C(=O)N[C@@H](CC(N)=O)C(=O)N[C@H]2C(=O)N[C@H]3C(=O)N[C@H](C(=O)N[C@H](C(=O)O)c4cc(O)cc(O)c4-c4cc3ccc4O)[C@H](O)c3ccc(c(Cl)c3)Oc3cc2cc(c3O[C@@H]2O[C@H](CO)[C@@H](O)[C@H](O)[C@H]2O[C@H]2C[C@](C)(N)[C@H](O)[C@H](C)O2)Oc2ccc(cc2Cl)[C@H]1O` [Vancomycin], the “Zone of Inhibition” value under setting [1] is 21 mm; the “Zone of Inhibition” value under setting [2] is listed as 21 mm; the “Zone of Inhibition” value under setting [3] was 19 mm; the “Zone of Inhibition” value under setting [4] was found to be 21 mm; the “Zone of Inhibition” value under setting [5] was 20 mm; the “Zone of Inhibition” value under setting [6] is given as 20 mm. The “Zone of Inhibition” value is, setting by setting: under setting [7], 20 mm; under setting [8], 23 mm.
In the case of Gentamicin, the “Zone of Inhibition” value was 27 mm under setting [1]; 27 mm under setting [2]; 27 mm under setting [3]; 29 mm under setting [4]; 28 mm under setting [5]; 30 mm under setting [6]. Further, the “Zone of Inhibition” value by setting is: under setting [7], 30 mm; under setting [8], 33 mm; under setting [9], 28 mm.

Values taken from patent US20130165368A1, “ANTIMICROBIAL COMPOUNDS” (priority 2010, published 2013).
